Reference: PubChem BioAssay (NCI)
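These data come from cells grown in 96-well plates and exposed to compound for 48 hours at five concentrations. At the TGI there is no net growth.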

Tests used:
Assay in all cases: inhibition of tumour cell growth, NCI panel, 48 h
[1] = test system: UACC-62 melanoma
[2] = test system: T-47D breast
[3] = test system: SNB-19 CNS
[4] = test system: SN12C renal
[5] = test system: A549 NSCLC
[6] = test system: MDA-MB-435
[7] = test system: NCI/ADR-RES ovarian
[8] = test system: HS 578T breast
[9] = test system: SR leukemia
[10] = test system: HCC-2998 colon

Row | SMILES | TGI [1] | TGI [2] | TGI [3] | TGI [4] | TGI [5] | TGI [6] | TGI [7] | TGI [8] | TGI [9] | TGI [10]
1 | O=C1c2ccccc2-c2nnc3c(c21)-c1ccccc1C3 | > 100 µM | > 100 µM | > 100 µM | > 100 µM | > 100 µM | > 100 µM | > 100 µM | > 100 µM | > 100 µM | 
2 | COC1CC(COCc2ccccc2)CC(OC)O1 (stereo not given) | > 100 µM | > 100 µM |  | > 100 µM | > 100 µM | > 100 µM | > 100 µM | > 100 µM | > 100 µM | > 100 µM
3 | CC[C@@]1(C)CCC2c3ccc(O)cc3CC[C@H]2C1C (stereo not given in full) | 28.4 µM | 39.3 µM | 32.1 µM | 34.3 µM | 33.6 µM | 30.2 µM | 35.7 µM | 35.5 µM | 31.6 µM | 27.1 µM
4 | CCOC(=O)C1=NN(c2ccc([N+](=O)[O-])cc2)[C@@]2(C)C[C@]3(c4ccccc4)N(c4ccc([N+](=O)[O-])cc4)N=C(C(=O)OCC)N3c3ccccc3N12 | > 100 µM | > 100 µM | > 100 µM | > 100 µM | > 100 µM | > 100 µM | > 100 µM | > 100 µM | > 100 µM | > 100 µM
5 | Cc1cccc2c1c(=O)c1c(O)c3c(cc1n2C)OC(C)(C)C=C3 | > 10 µM | > 10 µM | > 10 µM | > 10 µM | > 10 µM | > 10 µM | > 10 µM | > 10 µM | > 10 µM | > 10 µM
6 | O=C1CSC(c2ccccc2[N+](=O)[O-])N1c1ccc(-c2ccc(-n3c(-c4ccccc4)nc4ccccc4c3=O)cc2)cc1 (stereo not given) | > 100 µM | > 100 µM | > 100 µM | > 100 µM | > 100 µM | > 100 µM | > 100 µM | > 100 µM | > 100 µM | > 100 µM
7 | COc1cc(NCCC2CCCCN2)c2ncccc2c1 (stereo not given) | > 59.9 µM | 4.83 µM | > 100 µM | > 77.2 µM | > 100 µM | > 67.2 µM | > 100 µM | > 100 µM | > 81.3 µM | 30.7 µM
8 | COC1CN(C)C(=Nc2cccc3ccccc23)S1 (stereo not given) | > 10 µM | > 10 µM | > 10 µM | > 10 µM | > 10 µM | > 10 µM | > 10 µM | > 10 µM | > 10 µM | > 10 µM
9 | CC(=O)Nc1c(C)cc2c(nc3n2CCC3OC(C)=O)c1[N+](=O)[O-] (stereo not given) | > 100 µM | > 100 µM | > 100 µM | > 100 µM | > 100 µM | > 100 µM | > 100 µM | > 100 µM | > 100 µM | 
10 | N#CC(=N)c1ncn(-c2ccc(N)cc2)c1N | > 100 µM | > 100 µM | > 100 µM | > 100 µM | > 100 µM | > 100 µM | > 100 µM | > 100 µM | > 100 µM | > 100 µM
11 | CC(=O)O[C@H]1CC[C@@]2(C)C(=CC[C@@H]3[C@@H]2CC[C@]2(C)c4c(C)nn(-c5ccccc5)c4C[C@@H]32)C1 | 39.3 µM | > 100 µM | > 100 µM | > 100 µM | > 100 µM | > 100 µM | > 100 µM | 67.2 µM | 65 µM | 30.6 µM
12 | CC(C)=CC(Cc1ccccc1)S(=O)(=O)c1nc2ccccc2s1 (stereo not given) | 46.5 µM | > 67.2 µM | 32 µM | 31.8 µM | 60.1 µM | 32.4 µM | 50 µM | > 80 µM | 5.24 µM | 33.6 µM
13 | CCOC(=O)C1(C(=O)OCC)OC(C)=NC1(C(=O)OC)C(=O)OC | > 100 µM | > 100 µM | > 100 µM | > 100 µM | > 100 µM | > 100 µM | > 100 µM | > 100 µM | > 100 µM | > 100 µM
14 | OC(c1ccc(C(F)(F)F)cc1)C(F)(F)c1nc2ccccc2o1 (stereo not given) | > 100 µM | > 100 µM | > 100 µM |  |  | > 100 µM | > 100 µM | > 100 µM | > 100 µM | > 100 µM
15 | COC(=O)c1cc(C(=CCC[C@H]2CC[C@@]3(C)C(CCC4C3CC[C@@]3(C)C4CC[C@@H]3C(C)CCCC(C)C)C2)c2cc(Cl)c(O)c(C(=O)OC)c2)cc(Cl)c1O (stereo not given in full) | > 10 µM | > 10 µM | > 10 µM | > 10 µM | > 10 µM | > 10 µM | > 10 µM | > 10 µM | > 10 µM | > 10 µM
16 | NCCCC[C@H](N)C(=O)Nc1ccc(-c2nc3ccccc3s2)cc1 | 59.7 µM | > 100 µM | 32.3 µM | 74.3 µM | > 100 µM | 35.1 µM | 59.7 µM | 47.6 µM | 36.2 µM | 81.5 µM
17 | C/C=C(\C)C(O)C(C)C(O)C/C=C(C)/C=C(\C)C/C(C)=C/C/C=C(\C)C(O)C(C)c1ccc(CCC)c(=O)o1 (stereo not given) | 26.1 µM | 65.4 µM | 42.3 µM | 46.2 µM | 27.8 µM | 22.7 µM | 29.7 µM | 37.9 µM | > 100 µM | 26.4 µM
18 | NC(Cc1ccc(N(CCCl)CCCl)cc1)C(=O)NC(CCC(=O)O)C(=O)O (stereo not given) | > 100 µM | > 100 µM | > 100 µM | > 100 µM | > 100 µM | > 100 µM | > 100 µM | > 100 µM | > 100 µM | > 100 µM
19 | O=C1C(=O)N(c2cccc(C(F)(F)F)c2)C(=S)N1c1ccccc1 | 31.3 µM | > 100 µM | > 100 µM | > 100 µM | > 100 µM | 82.4 µM | > 100 µM | > 100 µM | > 100 µM | > 100 µM
20 | CN(C)CCn1c(=O)c2ccc(NCCN3CCNCC3)c3c(=O)c4ccccc4n(c1=O)c23 | 15.8 µM | 28.9 µM | 23.9 µM | 14.6 µM | 15.9 µM | 9.01 µM | 30 µM | 25.9 µM | 0.322 µM | 12.8 µM
21 | CN(C)C(c1ccccc1)C1COC2Cc3ccccc3C1O2 (stereo not given) | > 100 µM | > 100 µM | > 100 µM | > 100 µM | > 100 µM | > 100 µM | > 100 µM | > 100 µM | > 100 µM | > 100 µM
